{
  "source": "paper PMC11591947",
  "about": "“Peroxidase-like Nanoparticles of Noble Metals Stimulate Increasing Sensitivity of Flavocytochrome b2-Based L-Lactate Biosensors” (Biosensors, 2024)",
  "molecular_target": "T1, Flavocytochrome b2 (Fcb2, EC 1.1.2.3) (Ogataea polymorpha, UniProt A0A9P8PNE1)",
  "T1 construct": "gene OGATHE_001663",
  "T1 sequence (A0A9P8PNE1 55-553)": "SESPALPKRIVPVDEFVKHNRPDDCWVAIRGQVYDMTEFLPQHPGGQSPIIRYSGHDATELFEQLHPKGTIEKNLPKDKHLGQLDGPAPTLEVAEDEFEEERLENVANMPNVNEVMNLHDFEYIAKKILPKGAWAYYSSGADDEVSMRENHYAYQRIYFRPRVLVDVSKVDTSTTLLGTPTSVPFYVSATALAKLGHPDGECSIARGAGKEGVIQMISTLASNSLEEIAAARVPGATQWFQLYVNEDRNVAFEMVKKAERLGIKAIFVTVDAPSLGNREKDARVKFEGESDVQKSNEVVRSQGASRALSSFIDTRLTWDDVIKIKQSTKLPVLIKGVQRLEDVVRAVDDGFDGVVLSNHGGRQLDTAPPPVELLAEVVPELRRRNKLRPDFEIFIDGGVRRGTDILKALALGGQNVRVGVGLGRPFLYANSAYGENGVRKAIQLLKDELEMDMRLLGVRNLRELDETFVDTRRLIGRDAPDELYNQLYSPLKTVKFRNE",
  "assay": "chronoamperometry on Fcb2/graphite electrode biosensor",
  "assay_type": "biochemical",
  "settings": "immobilised enzyme (0.3 units, Nafion film, no nanoparticles); 1 mM PMS; +200 mV vs Ag/AgCl; apparent value of bioelectrode",
  "data": [
    {"molecule": "C[C@H](O)C(=O)O", "note": "[L-lactate]", "values": [
      {"measurement": "KM^app", "result": "Calibration curves illustrating the current dependence on the L-lactate concentration for the ABS"}
    ]}
  ]
}
